Assay results from US5607966A, “Esters and amides of non-steroidal anti-inflammatory carboxylic acids which may be used as anti-oxidants, 5-lipoxygenase inhibitors and non-steroidal anti-inflammatory prodrugs” (Alcon Laboratories, Inc., priority 1994, dated 1997).

Tests used:
[1] = system: bovine retinal pieces; assay: inhibition of lipid peroxide formation (TBARS) in bovine retinal pieces after hypoxia/reoxygenation; type: cell-based; settings: hypoxia 1 hour, reoxygenated for 1 hour, agent added after 50 minutes of hypoxia
Protocol: The cytoprotective effects of the compounds were measured using bovine retinal pieces. Retinal tissues were incubated in hypoxic media for 1 hour. After 50 minutes of hypoxia, test agents were added to the media to allow 10 minutes for the drug to diffuse into the tissue prior to reoxygenation. The vehicle by itself, was added to the non-drug group. Following the incubation period, tissue was reoxygenated for 1 hour. Lipid peroxidation was assessed by the formation of thiobarbituric acid reacting substances (TBARS). The tissues were homogenized and added to the trichloroacetic acid-thiobarbituric acid reagent and heated in the presence of BHT. The homogenate was filtered and the absorbance of the supernant was measured spectrophotometrically. A double derivative technique was used to calculate the concentration of TBARS present in each sample. Quantitation was based on a molar extinction coefficient of 1.56×10^5.

[2] = phospholipid oxidation assay (conjugate diene formation in liposomes, Fe+3/EDTA and ascorbate); type: biochemical; settings: Fe+3/EDTA (167 μM) and ascorbate (167 μM), one hour
Protocol: Antioxidant activity was measured using a phospholipid oxidation assay. Liposomes were formed from dilineoleolylphosphocholine and the test compound. Free radical damage was induced by exposure to Fe^+3 /EDTA (167 micromolar [μM]) and ascorbate (167 μM). Oxidation was terminated after one hour by freezing in liquid nitrogen. Lyophilized samples were then dissolved in methanol or water. Oxidation was measured by conjugate diene formation, monitored using UV spectroscopy as described in Biochimica et Biophyica Acta, volume 1081, 181-187, (1991). The IC50 was calculated using the following non-linear regression algorithm: Y=A/[1+(B/X)^c ], wherein A=maximum, B=IC^50 and c=cooperativity or relative broadness of the curves. The minimum was assumed to be zero.

[3] = system: endotoxin-induced uveitis in female Lewis rats (neutrophil influx into ocular tissue); assay: endotoxin-induced uveitis model, neutrophil influx (MPO activity) into the eye after topical administration; type: in vivo, rat (female Lewis); settings: for % Inhibition of Influx: topical 5 μl to each eye, 24 hours post endotoxin; for inhibition of neutrophil influx into the rat eye (in words): endotoxin induced uveitis, following topical administration
Protocol: The topical ophthalmic activity of representative compounds of the present invention, as compared with dexamethasone, is shown in Table 5 below. The compounds were evaluated in an endotoxin-induced uveitis model. This subacute model of ocular inflammation is characterized by the infiltration of neutrophils into the ocular tissue following administration of an endotoxin.
Ocular inflammation in female Lewis rats was initiated by hindpaw injection of 0.1 milliliters [ml] sterile saline (0.9% NaCl, weight:volume [w:v]) containing […] bacterial endotoxin (LPS; Escherichia coli 055:B5). Test compound or vehicle (carbopol/maxidex), 5 μl, was administered topically to each eye of the experimental animal 20 and 24 hours prior to endotoxin injection, immediately before endotoxin injection, and 4 and 20 hours after endotoxin injection. Twenty-four hours post endotoxin injection, animals were sacrificed by CO2 inhalation, and total ocular polymorphonuclear neutrophil (PMN) content was assessed indirectly by determination of myleoperoxide activity (MPO).
Ocular tissues were prepared for the quantification of neutrophil content as follows: Eyes were homogenized in 2.5 ml of ice-cold 50 mM phosphate/10mM N-ethylmaleimide buffer. The Brinkman homogenation probe was rinsed three (3) times with 2.5 ml of the same buffer and the probe washings were combined with the initial tissue homogenate. The homogenate was centrifuged for 30 minutes at 12,000×gravitational constant [g] at 4° C. The supernatant was discarded and the proteinaceous pellet was solubilized on 0.5 ml of ice-cold 0.5% hexadecyltrimethyl ammonium bromide (HTABr)/50 mM phosphate buffer (pH 6.0). The detergent-treated pellet homogenate was centrifuged at 4° C. for 30 minutes at 12,000×g and the supernatant collected and assayed for MPO activity in a buffer containing 50 mM phosphate/250 mM HTABr/250 μM hydrogen peroxide and 1.5 mM o-dianisidine (pH 6.0). o-Dianisidine oxidation was monitored spectrophotometrically at a wavelength of 460 nanometers [nm].

[4] = target: T1, 5-lipoxygenase (Oryctolagus cuniculus, UniProt G1SNX0); assay: 5-lipoxygenase inhibition (5-HETE and LTB4 formation) in A23187-stimulated rabbit neutrophils; type: cell-based, rabbit (New Zealand Albino); settings: A23187 5.0 μM, arachidonic acid 52 μM, 3 minutes at 37° C.
T1 construct: neutrophils isolated from rabbit peripheral blood; endogenous in cells; host or cells: neutrophils from peripheral blood of New Zealand Albino rabbits
T1 sequence (G1SNX0 1-674): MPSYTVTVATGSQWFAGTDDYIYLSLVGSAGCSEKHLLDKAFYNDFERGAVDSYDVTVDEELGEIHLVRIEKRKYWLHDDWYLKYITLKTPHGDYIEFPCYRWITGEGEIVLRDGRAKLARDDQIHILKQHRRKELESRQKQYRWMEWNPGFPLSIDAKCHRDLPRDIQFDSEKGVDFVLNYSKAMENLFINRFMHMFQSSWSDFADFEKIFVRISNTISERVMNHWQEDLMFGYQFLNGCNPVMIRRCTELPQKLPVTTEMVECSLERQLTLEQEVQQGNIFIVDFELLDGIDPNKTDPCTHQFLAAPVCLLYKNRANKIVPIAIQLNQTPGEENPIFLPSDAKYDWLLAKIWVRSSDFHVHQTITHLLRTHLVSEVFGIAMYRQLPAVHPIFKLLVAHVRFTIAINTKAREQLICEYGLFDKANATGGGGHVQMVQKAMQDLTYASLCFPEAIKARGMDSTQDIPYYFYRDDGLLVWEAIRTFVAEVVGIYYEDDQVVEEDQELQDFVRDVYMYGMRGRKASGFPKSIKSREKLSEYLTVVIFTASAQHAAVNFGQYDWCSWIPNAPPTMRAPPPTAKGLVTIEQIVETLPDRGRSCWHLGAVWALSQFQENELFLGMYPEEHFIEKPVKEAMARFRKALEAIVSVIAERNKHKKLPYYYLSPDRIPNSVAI
Protocol: The 5-lipoxygenase inhibitor activity was determined by measuring the inhibition of 5-HETE and LTB4 formation. The ability of a compound to suppress 5-HETE and LTB4 formation was investigated in calcium ionophore (A23187)-stimulated neutrophils isolated from rabbit peripheral blood. Neutrophils were isolated by standard procedures. Briefly, heparinized/calcium chelated blood was obtained from New Zealand Albino (NZA) rabbits by heart puncture. Red cells were removed at 4° C. by dextran sedimentation,as described in Blood, volume 11, 436 (1956). White cells, contained in the supernatant fraction, were sedimented by centrifugation and contaminating red cells removed by hypotonic lysis. The white cell pellet obtained, following red cell lysis and centrifugation, was resuspended in Dulbecco's PBS (Ca^2+ /Mg^2+ -free) and layered onto a 60% Histopaque-1083®/40% Histopaque-1119® cushion (Sigma Chemical, St. Louis, Mo., U.S.A.). The Histopaque® cushion was then centrifuged, and the resulting neutrophil pellet was washed and resuspended in 1/25 of the original blood volume. Aliquots of the cell suspension were pretreated for 5 minutes at 37° C. with carrier (DMSO) or test article dissolved in DMSO. CaCl2 was immediately added to the cell suspension and cells stimulated by addition of 5 microliters [μl] of a mixture containing [1-^14 C]-arachidonic acid and A23187 in DMSO. […]

In the case of `COc1ccc2cc(C(C)C(=O)OCC3(C)Cc4c(C)c(O)c(C)c(C)c4O3)ccc2c1` (stereo not drawn) [Compound E, 2-(5-hydroxy-2,4,6,7-tetramethyl-2,3-dihydro-benzo[1,2-b]furan-2-yl)methyl2-(6-methoxy-2-naphthyl)propionate], the IC50 ([1]; Bos taurus) is reported as 10 nM.
Compound Vitamin E [reference compound] has an IC50 [1] of 5000 nM and an IC50 [2] of 4420 nM.
With `C[C@@H]1C[C@H]2[C@@H]3CCC4=CC(=O)C=C[C@]4(C)[C@@]3(F)[C@@H](O)C[C@]2(C)[C@@]1(O)C(=O)CO` [Dexamethasone, reference compound] the “% Inhibition of Influx” value ([3]; concentration 0.1%) was 93%.
`COc1ccc2cc(C(C)C(=O)OCCC3(C)Cc4c(C)c(O)c(C)c(C)c4O3)ccc2c1` (stereo not drawn) [Compound F, 2-(5-hydroxy-2,4,6,7-tetramethyl-2,3-dihydro-benzo[1,2-b]furan-2-yl)ethyl 2-(6-methoxy-2-naphthyl)propionate] showed an IC50 [2] of 2550 nM.
`COc1ccc2cc(C(C)C(=O)OCCC3(C)CCc4c(C)c(O)c(C)c(C)c4O3)ccc2c1` (stereo not drawn) [Compound D, 2-(6-hydroxy-2,5,7,8-tetramethyl-3,4-dihydro-2H-benzo[1,2-b]pyran-2yl)ethyl 2-(6-methoxy-2-naphthyl)propionate] gave an IC50 ([1]; Bos taurus) of 6 nM, an IC50 [4] of 1000 nM and an IC50 [2] of 2230 nM. The “% Inhibition of Influx” value ([3]; concentration 1.0%) was 40% and the “inhibition of neutrophil influx into the rat eye (in words)” value [3] was “significantly inhibited neutrophil influx”.
With `COc1ccc2cc(C(C)C(=O)OCC3(C)CCc4c(C)c(O)c(C)c(C)c4O3)ccc2c1` (stereo not drawn) [Compound B, 2-(6-hydroxy-2,5,7,8-tetramethyl-3,4-dihydro-2H-benzo[1,2-b]pyran-2-yl)methyl 2-(6-methoxy-2-naphthyl)propionate] the IC50 [2] was 1160 nM.
With `COc1ccc2cc(C(C)C(=O)N(C)CC(O)c3ccc(O)c(O)c3)ccc2c1` (stereo not drawn) [Compound A, N-(2-(3,4-dihydroxyphenyl)-2-hydroxyethyl)-N-methyl 2-(6-methoxy-2-naphthyl)propionamide] the IC50 ([1]; Bos taurus) was 150 nM, the IC50 [4] was 4000 nM and the “% Inhibition of Influx” value ([3]; concentration 0.1%) was 40%. The “inhibition of neutrophil influx into the rat eye (in words)” value [3] was “significantly inhibited neutrophil influx”.
